Assay results reported in publication PMC9130538, “Amino acids in transmembrane helix 1 confer major functional differences between human and mouse orthologs of the polyspecific membrane transporter OCT1” (The Journal of Biological Chemistry, 2022).

Columns and labels:
[1] = target: T1, human OCT1 (Homo sapiens, UniProt O15245); assay: Cellular uptake by HEK293 cells overexpressing human OCT1 (wildtype)
T1 sequence (O15245 1-554): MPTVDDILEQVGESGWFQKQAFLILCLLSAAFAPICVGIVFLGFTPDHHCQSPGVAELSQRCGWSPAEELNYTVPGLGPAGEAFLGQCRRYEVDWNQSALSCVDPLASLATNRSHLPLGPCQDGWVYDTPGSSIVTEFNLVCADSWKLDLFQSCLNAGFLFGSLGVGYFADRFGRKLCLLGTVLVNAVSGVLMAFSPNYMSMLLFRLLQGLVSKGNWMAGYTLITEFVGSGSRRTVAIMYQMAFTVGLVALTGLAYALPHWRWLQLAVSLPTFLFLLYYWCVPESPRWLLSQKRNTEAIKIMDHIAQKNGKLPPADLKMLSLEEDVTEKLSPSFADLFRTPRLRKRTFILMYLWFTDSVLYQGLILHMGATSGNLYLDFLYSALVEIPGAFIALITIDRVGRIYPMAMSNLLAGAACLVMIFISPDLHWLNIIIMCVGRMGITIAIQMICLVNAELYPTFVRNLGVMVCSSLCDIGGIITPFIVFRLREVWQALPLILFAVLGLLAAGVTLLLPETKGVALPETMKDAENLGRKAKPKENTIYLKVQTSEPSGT
Method: Generation and characterization of these cell lines has been described in detail before ([34], [48], [49]). Cells were cultured in Dulbecco’s Modified Eagle’s Medium supplemented with 10% fetal bovine serum, 100 U/ml penicillin, and 100 μg/ml streptomycin at 37 °C and 5% CO2 and were passaged twice a week.
At 48 h prior to the experiment, 6 × 10^5 cells were seeded per well in 12-well plates. When using transiently transfected cells, 5 × 10^5 T-REx-293 cells (Life Technologies) were seeded per well in 12-well plates 72 h prior to the experiment, and they were transfected 24 h later as described previously. Twelve-well plates were precoated with poly-D-lysine.
(§1) Cellular uptake experiments were performed at 37 °C and pH 7.4 using HBSS supplemented with 10 mM Hepes (in the following referred to as HBSS+). Cells were washed with 1 ml prewarmed (37 °C) HBSS+, and the uptake was initiated by adding 400 μl of prewarmed HBSS+ containing the substrate. Uptake was allowed for exactly 2 min and afterward stopped by adding 2 ml ice-cold HBSS+. Cells were washed twice with 2 ml ice-cold HBSS+ and lysed with 80% acetonitrile supplemented with internal standard, 0.1 N NaOH/0.1% SDS, or radioimmunoprecipitation buffer for LC–MS/MS, liquid scintillation counting, or fluorescence spectroscopy detection, respectively. Intracellular substrate concentrations were measured as described in the following and were then normalized to the amount of total protein in the samples as measured using the bicinchoninic acid assay ([51]).
For LC–MS/MS quantification of intracellular substrate concentrations, the cell lysate was centrifuged at 16,000g for 15 min, and 350 μl of supernatant was evaporated to dryness under nitrogen flow at 40 °C. The sample was reconstituted with 200 μl 0.1% formic acid, and between 2 and 30 μl were injected into the LC–MS/MS system (Table S1).
An API4000 QTRAP tandem mass spectrometer with ESI interface (AB SCIEX) was used, coupled to a Shimadzu Nexera X2 UHPLC system with LC 30AD pumps and SiL 30AC autosampler (Shimadzu).
Intracellular concentrations of radioactively labeled substrates MPP^+ and TEA^+ were quantified using liquid scintillation counting. To this end, 400 μl cell lysate was transferred into a 20 ml scintillation vial, 9 ml Aquasafe 500 Plus liquid scintillator (both Zinsser Analytics) was added, and the sample was measured in the Scintillation Counter LS6500 (Beckman Coulter).
For both analyses, SPSS Statistics, version 28 (SPSS, Inc, IBM) was used.

[2] = target: T2, human OCT1 with mouse TMH1 (human–mouse chimeric OCT1) (Homo sapiens, UniProt O15245, A31S/C36Y/F32L/I24L/L28I); assay: Uptake by HEK293 cells transiently overexpressing chimeric human OCT1 carrying mouse TMH1; type: cell-based; conditions: 200 μM trospium, 2 min, transient transfection
T2 construct: expressed in transfected cells
Method: (§2) Human–mouse chimeric OCT1 constructs were generated using the overlap extension method ([50]) and have been characterized before ([34]). […] All constructs were validated by capillary sequencing of the complete open reading frame of OCT1 before transfection into HEK293 cells.
(§3) For transient transfection of OCT1 constructs into HEK293 cells for uptake experiments, 5 × 10^5 T-REx-293 cells (Life Technologies) were seeded per well in 12-well plates precoated with poly-D-lysine. […] At 48 h later, transfection efficacy was assessed microscopically by visualizing the GFP signal of the cotransfected GFP vector, and the cells were subsequently used for uptake experiments. […]
as §1, with “Cells were washed with 1 ml prewarmed (37 °C) HBSS+, and the uptake was initiated by adding 400 μl of prewarmed HBSS+ containing the substrate. Uptake was allowed for exactly 2 min and afterward stopped by adding 2 ml ice-cold HBSS+.” left out, “([51]). […]” for “([51]).”

[3] = target: T3, human OCT1 Cys36Tyr (Homo sapiens, UniProt O15245, C36Y); assay: Uptake by HEK293 cells overexpressing Cys36Tyr human OCT1; type: cell-based; conditions: 2 min
T3 construct: expressed in transfected cells
Method: as §2, §3
as §1, with “Cells were washed with 1 ml prewarmed (37 °C) HBSS+, and the uptake was initiated by adding 400 μl of prewarmed HBSS+ containing the substrate. Uptake was allowed for exactly 2 min and afterward stopped by adding 2 ml ice-cold HBSS+.” left out, “([51]). […]” for “([51]).”

[4] = target: T4, human OCT1 Phe32Leu (Homo sapiens, UniProt O15245, F32L); assay: Uptake by HEK293 cells overexpressing Phe32Leu human OCT1; type: cell-based; conditions: 200 μM trospium, 2 min, transient transfection, versus human wildtype
T4 construct: expressed in transfected cells
Method: as §2, §3
as §1, with “Cells were washed with 1 ml prewarmed (37 °C) HBSS+, and the uptake was initiated by adding 400 μl of prewarmed HBSS+ containing the substrate. Uptake was allowed for exactly 2 min and afterward stopped by adding 2 ml ice-cold HBSS+.” left out, “([51]). […]” for “([51]).”

[5] = target: T5, mouse Oct1 Leu32Phe (Mus musculus, UniProt O08966, L32F); assay: Uptake by HEK293 cells overexpressing Leu32Phe mouse Oct1; type: cell-based; conditions: 200 μM trospium, 2 min, transient transfection
T5 construct: expressed in transfected cells
T5 sequence (O08966 whole entry L32F): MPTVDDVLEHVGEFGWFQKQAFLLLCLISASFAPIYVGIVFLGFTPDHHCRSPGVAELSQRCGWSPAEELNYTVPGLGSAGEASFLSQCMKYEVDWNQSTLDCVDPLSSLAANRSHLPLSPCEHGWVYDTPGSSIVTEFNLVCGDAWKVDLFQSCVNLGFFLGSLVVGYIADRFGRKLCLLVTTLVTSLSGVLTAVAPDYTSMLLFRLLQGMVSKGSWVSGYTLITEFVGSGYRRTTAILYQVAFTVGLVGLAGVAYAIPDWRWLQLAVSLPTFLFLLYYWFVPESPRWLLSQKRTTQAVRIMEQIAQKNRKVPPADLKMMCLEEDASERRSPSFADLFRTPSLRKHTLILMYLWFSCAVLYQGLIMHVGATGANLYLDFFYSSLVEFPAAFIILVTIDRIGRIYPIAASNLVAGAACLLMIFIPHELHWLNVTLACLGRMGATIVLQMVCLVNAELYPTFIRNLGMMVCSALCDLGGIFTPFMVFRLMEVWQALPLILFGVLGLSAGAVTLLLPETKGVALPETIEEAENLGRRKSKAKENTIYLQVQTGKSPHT
Method: as §2, §3
as §1, with “Cells were washed with 1 ml prewarmed (37 °C) HBSS+, and the uptake was initiated by adding 400 μl of prewarmed HBSS+ containing the substrate. Uptake was allowed for exactly 2 min and afterward stopped by adding 2 ml ice-cold HBSS+.” left out, “([51]). […]” for “([51]).”

[6] = human, estimated based on clinical data, ref [39]; cited from earlier work
[7] = target: mouse Oct1 Tyr36Cys (Mus musculus, UniProt O08966, Y36C); conditions: stably transfected HEK293, increasing concentrations, 2 min
Chain of mouse Oct1 Tyr36Cys (O08966 whole entry Y36C): as the sequence (O08966 whole entry L32F) above, with F32L, Y36C counted along it
Method: as §2, §3
as §1, with “Cells were washed with 1 ml prewarmed (37 °C) HBSS+, and the uptake was initiated by adding 400 μl of prewarmed HBSS+ containing the substrate. Uptake was allowed for exactly 2 min and afterward stopped by adding 2 ml ice-cold HBSS+.” left out, “([51]). […]” for “([51]).”

[8] = human versus mouse OCT1, stably transfected HEK293

## O=C(O[C@H]1C[C@H]2CC[C@@H](C1)[N+]21CCCC1)C(O)(c1ccccc1)c1ccccc1 [Trospium]
[1]; 100 nM, 2 min, stably transfected HEK293
  difference in uptake between human and mouse OCT1 at low concentration: did not see differences in uptake
[1]; [8]
  fold higher capacity (vmax) of human OCT1 than mouse Oct1: 9.0 fold
  fold lower affinity (KM) of human OCT1 than mouse Oct1 (higher affinity of mouse Oct1): 10.6 fold
[2]
  decrease of trospium uptake compared with human wildtype: 91%
[3]; 200 μM trospium, transient transfection
  effect of Cys36Tyr on uptake of trospium: did not affect
[4]
  decrease of trospium uptake by Phe32Leu in human OCT1: 79%
[5]; versus human wildtype OCT1
  trospium uptake exceeding the uptake of the human ortholog: 2.8 fold
[5]; versus mouse wildtype
  increase of trospium uptake by Leu32Phe in mouse Oct1: sevenfold
[6]
  clinically relevant (plasma) concentration: 13.3 nM

## CC(C)(C)NCC(O)c1cc(O)cc(O)c1 (stereo not drawn) [Terbutaline]
[1]; [8]
  fold lower affinity (KM) of human OCT1 than mouse Oct1 (higher affinity of mouse Oct1): more than sixfold higher affinity of mouse Oct1
[3]; stably transfected HEK293, increasing concentrations
  effect of Cys36Tyr in human OCT1 on affinity (KM): did not affect
[7]
  effect of Tyr36Cys in mouse OCT1 on affinity (KM): did not affect
